Laboratory results published in US20160281125A1, “ANTIMICROBIAL COMPOUND SUSCEPTIBILITY TEST” (priority 2013, published 2016).

Key:
E. coli BAA-197 (ESBL) = test: Selective lysis test, OD600, meropenem and cefotaxime (Example 2); assay type: cell-based
Procedure: (§1) In this experiment the following strains were tested: strain K. pneumoniae 13882 (previously considered meropenem sensitive and cefotaxime sensitive); E. coli BAA-197 (ESBL) (which expresses an extended-spectrum (beta)-lactamase enzyme and was previously considered meropenem sensitive and cefotaxime resistant); K. pneumoniae BAA-1705 (KPC) (which expresses a carbapenemase enzyme and was previously considered meropenem resistant and cefotaxime resistant); and K. pneumoniae BAA-2146 (NDM1) (which expresses the metallo-beta-lactamase-1 enzyme and was previously considered meropenem resistant and cefotaxime resistant).
(§2) An isolated colony from an overnight Tryptocase Soy Agar (TSA) plate of each bacteria was suspended in 1 ml Tryptocase Soy Broth (TSB) in a 5 ml BD polystyrene round bottom tube. TSB cultures were incubated at 37° C. for 1.5 hours shaking. Three 250 μl aliquots of each stationary-phase culture were then transferred to three 2 ml Eppendorf microcentrifuge tubes. One tube contained 500 μl of Normal Saline (BD); the second tube contained 500 μl Normal Saline with meropenem at 10 μg/ml; and the third tube contained 500 μl Normal Saline with cefotaxime (abbreviated […]) at 10 μg/ml. Tubes were inverted then incubated at 37° C. stagnant for thirty minutes. Then […] of lysis buffer (0.5% SDS in PSB) was added to each tube and each tube was vortexed for 5 seconds. Post incubation, all tubes were spun at 10000 G for 5 minutes. Supernatant was decanted and the pellet resuspended in Normal Saline. Tubes were vortexed. OD600 was measured using Eppendorf uvettes in a spectrophotometer. The delta between the control and the meropenem normal saline, or the control and the cefotaxime normal saline was used to determine susceptibility.

K. pneumo 13882 = test: as above; assay type: cell-based, K. pneumoniae
Procedure: as §1, §2

[1] = test system: K. pneumo BAA-2146 (NDM1); test: as above; assay type: cell-based, K. pneumoniae
Procedure: as §1, §2

K. pneumo BAA-1705 (KPC) = test: as above; assay type: cell-based, K. pneumoniae
Procedure: as §1, §2

[2] = test system: class D beta-lactamase Enterobacteriaceae; test: Lysis test on simulated blood cultures vs CLSI disk diffusion (Example 9); assay type: cell-based; conditions: the one Class D strain incorrect with ertapenem; cut-off ≦30% resistant
Procedure: In this example, isolates tested include strains with and without carbapenemases. From fresh blood agar plates, three colonies per strain were used to inoculate blood culture media containing human blood and grown overnight at 37° C. with shaking, producing a simulated blood culture. Cultures were then diluted 1:10 into broth medium and grown for an additional hour at 37° C. with shaking. For each strain, four 250 μL aliquots were added into four separate 2 mL Eppendorf microcentrifuge tubes. […] Tubes were vortexed to resuspend the pellet completely, and then OD600 measurement was taken and the percent change, or percent lysis, between the control and antibiotic tubes was calculated (percent change=[control OD−antibiotic OD]/control OD). Results were then compared to the susceptibility of the strains, determined using the Clinical and Laboratory Standards Institute (CLSI) methods for disk diffusion. […]
Of note, if a strain was determined to be intermediate to a drug by the disk diffusion method using CLSI breakpoints, it was expected to correlate to the resistant answer by the method of the invention. […] With this consideration, it is preferable that intermediate strains are conservatively scored as resistant to prevent possible treatment failure. […]

[3] = test system: K. pneumoniae strain 13882; test: Carbapenem test, Triton fixation buffer and BacUni QuickFISH staining (Example 4); assay type: cell-based; conditions: FIG. 10; K. pneumoniae 13882; 10 μg/ml
Procedure: (§3) An isolated colony from an overnight Tryptocase Soy Agar (TSA) plate for each bacteria was suspended in 1 ml Tryptocase Soy Broth (TSB) in a 5 ml BD polystyrene round bottom tube. TSB cultures were incubated at 37° C. for 1.5 hours shaking. […] of each stationary-phase culture were transferred to 2 ml Eppendorf microcentrifuge tubes containing 500 μl of Normal Saline (BD); or 500 μl Normal Saline with imipenem, ertapenem, or meropenem at a concentration of […], […], or 40 μg/ml (26.67 μg/ml final concentration). Tubes were inverted then incubated at 37° C. stagnant for thirty minutes. Then 10 μl from each tube was pipetted onto plain glass slide on a 55° C. heat block, followed by 25 μl fixation buffer (0.5% T×100, 100 mM Tris pH 9, 24% Ethanol, and 10 mM NaCl); slide is incubated until sample is dry. Ten μl of BacUni QuickFISH hybridization buffer was added to each slide followed by a 22×22 mm coverslip. The slide was then incubated at 55° C. for 15 minutes. The slides were viewed on a fluorescence microscope 60× oil immersion on Dual TxR/FITC. Images were taken with a 1 second exposure.
(§4) The control fixation in this experiment has all the same components, except no Triton X-100. This was done to assess whether the selective lysis step is required to resolve a difference between susceptible and resistant bacteria.

E. coli strain 35218 = test: as above; assay type: cell-based; conditions: FIG. 9; E. coli 35218; 10 μg/ml
Procedure: as §3, §4

[4] = test system: K. pneumoniae strain BAA2146 NDM+; test: as above; assay type: cell-based; conditions: FIG. 11, 10 μg/ml
Procedure: as §3, §4

Compound	assay score (sensitive or resistant) (E. coli BAA-197 (ESBL))	% diff (E. coli BAA-197 (ESBL); OD600 vs control) [%]	OD600 (E. coli BAA-197 (ESBL); antibiotic 10 μg/ml, 30 min, SDS lysis buffer + vortex, 1.5 h culture)	% diff (K. pneumo 13882; K. pneumo 13882, OD600 vs control) [%]	OD600 (K. pneumo 13882; K. pneumo 13882, antibiotic 10 μg/ml, 30 min, SDS lysis buffer + vortex, 1.5 h culture)	assay score (sensitive or resistant) (K. pneumo 13882; K. pneumoniae 13882)	% diff ([1]; K. pneumo BAA-2146 (NDM1), OD600 vs control) [%]	OD600 ([1]; K. pneumo BAA-2146 (NDM1), antibiotic 10 μg/ml, 30 min, SDS lysis buffer + vortex, 1.5 h culture)	assay score (sensitive or resistant) ([1]; K. pneumoniae BAA-2146 (NDM1))	% diff (K. pneumo BAA-1705 (KPC); K. pneumo BAA-1705 (KPC), OD600 vs control) [%]	OD600 (K. pneumo BAA-1705 (KPC); K. pneumo BAA-1705 (KPC), antibiotic 10 μg/ml, 30 min, SDS lysis buffer + vortex, 1.5 h culture)	assay score (sensitive or resistant) (K. pneumo BAA-1705 (KPC); K. pneumoniae BAA-1705 (KPC))	lysis (percent change of OD600) [2] [%]	test result (susceptibility or resistance) by BacUni QuickFISH staining [3]	test result (susceptibility or resistance) by BacUni QuickFISH staining (E. coli strain 35218)	test result (susceptibility or resistance) by BacUni QuickFISH staining [4]
CO/N=C(\C(=O)N[C@@H]1C(=O)N2C(C(=O)O)=C(COC(C)=O)CS[C@H]12)c1csc(N)n1 [cefotaxime]	resistant	19.1	0.292	69.8	0.11	sensitive	6.7	0.28	resistant	34.1	0.334	resistant	–	–	–	–
C[C@@H](O)[C@H]1C(=O)N2C(C(=O)O)=C(S[C@@H]3CN[C@H](C(=O)Nc4cccc(C(=O)O)c4)C3)[C@H](C)[C@H]12 [ertapenem]	–	–	–	–	–	–	–	–	–	–	–	–	36	detect susceptibility	detect susceptibility	detect resistance
